In patent publication US20130047297A1, “POLYNUCLEOTIDE MOLECULES FOR GENE REGULATION IN PLANTS” (priority 2010, published 2013):
{AF488} = Alexa Fluor 488 fluorescent label (Invitrogen)

Experiments:
[1] = system: phytoene desaturase (PDS) gene in lettuce (Lactuca sativa); experiment: Topical PDS ssDNA on lettuce, bleaching (Example 24); format: in vivo; conditions: 8 nanomoles polynucleotide per plant (mixture: 2 nanomoles each); observed at 4
Method: Lettuce variety LS49 “Green Tower” was used in the assays. Two fully expanded leaves of each plant were dipped into a freshly made 0.1% Silwet L-77 in double-distilled water solution for a few seconds. The leaves were allowed to dry for 15-30 minutes. Each plant was then treated by applying 20 microliters ssDNA solution to the top surface of two Silwet-treated leaves (total 40 microliters per plant). Table 9 lists the assay conditions used and the observed bleaching of plants topically treated with ssDNA polynucleotides.
The assays were repeated with 2 or 4 nanomoles ssDNA applied per plant.
The assays were repeated using each individual anti-sense ssDNAs (“HL287”, SEQ ID NO:55; “HL288”, SEQ ID NO:56; “HL289”, SEQ ID NO:57; and “HL290”, SEQ ID NO:58) with 8 nanomoles polynucleotide applied per plant; positive control plants were treated with a mixture of the four individual anti-sense ssDNAs at 2 nanomoles each (for a total of 8 nanomoles polynucleotide applied per plant) and negative control plants were treated only with buffer.

[2] = system: Glyphosate-resistant Palmer amaranth plants having 49 or 63 copies EPSPS; experiment: Salicylic acid pretreatment with dsRNA and glyphosate (Example 15); format: in vivo; conditions: 15 millimolar SA 1, 5, or 24 hours before dsRNA; glyphosate 72 hours later; 7 days after glyphosate
Method: Salicylic acid (SA) induces virus resistance in tobacco; see, e. g., Chivasa et al. (1997) Plant Cell, 19:547-557. Glyphosate-resistant Palmer amaranth plants having 49 or 63 copies EPSPS were pretreated with 15 millimolar SA. A solution of the four oligonucleotide-size “short” EPSPS dsRNA molecules (described in Example 1) was applied by hand at 1, 5, or 24 hours after treatment with SA, followed 72 hours later by spraying with glyphosate (1682 g acid equivalent per hectare of Roundup® WeatherMAX® brand herbicide).

[3] = system: detached leaves of glyphosate-resistant Palmer amaranth; experiment: Petiole uptake of fluorescently labelled ssDNA oligonucleotide in detached leaves (Example 9); design: species or system Amaranthus palmeri
Method: Petioles of detached leaves of glyphosate-resistant Palmer amaranth were placed in 200 mM sucrose solution with fluorescently labelled ssDNA oligonucleotides (SEQ ID NO:15). Leaf images were taken by Bio-Rad PharosFX imager equipped with a 488 nm laser from 4 h up to 48 h after uptake through petiole. Leaves incubated with 200 mM sucrose alone served as control.

[4] = system: endogenous PDS, EPSPS, or RuBisCO genes from Nicotiana benthamiana; experiment: PDS, EPSPS, RuBisCO anti-sense polynucleotides on Nicotiana benthamiana, plant height (Example 33); format: in vivo; conditions: PDS 25 nanomoles, EPSPS and RuBisCO 50 nanomoles of each per plant
Method: Nicotiana benthamiana plants were treated using a procedure similar to that described in Example 12. Polynucleotide solution (or mixed polynucleotides in the case of EPSPS and RuBisCO) were prepared in 0.01% (v/v) Silwet L-77 and 2% (w/v) ammonium sulfate in 5 millimolar sodium phosphate, pH 6.8. Two fully expanded leaves per plant were dipped into 0.1% Silwet L-77 solution freshly made with ddH2O for a few seconds, and allowed to dry. About 30 minutes later, 20 microliters of polynucleotide solution, was applied to each of the two pre-treated leaves. For PDS, each of 5 plants received 25 nanomoles of the PDS anti-sense polynucleotide (SEQ ID NO:34); for EPSPS, each of 5 plants received 50 nanomoles of each EPSPS anti-sense polynucleotide (SEQ ID NOS:279-284); and for RuBisCO, each of 5 plants received 50 nanomoles of each RuBisCO anti-sense polynucleotide (SEQ ID NOS:288-295). Paired control plants were treated with buffer (0.01% (v/v) Silwet L-77 and 2% (w/v) ammonium sulfate in 5 millimolar sodium phosphate, pH 6.8).

[5] = system: volunteer glyphosate-resistant corn plants; experiment: Synthetic Pol III gene dsDNA on volunteer corn (Example 8); format: in vivo; conditions: 0.1 wt % Silwet L-77 and dsDNA sprayed, glyphosate 7 days later; 15 days later
Description: (§1) This example illustrates the utility of employing a synthetic Pol III gene in compositions and methods of this invention. With reference to SEQ ID NO:3 and FIG. 2, a synthetic Pol III gene is created using elements from an Arabidopsis thaliana U6 snRNA gene to provide a dsDNA molecule with two copies of RGCCCR elements (bold and underlined), an upstream sequence element (USE) having the sequence “[…]” (SEQ ID NO:4, bold and underlined), a TATA box (bold and underlined), a “G” nucleotide (bold and underlined), anti-sense DNA (italics) corresponding to a bacterial DNA encoding an EPSPS protein (see U.S. Pat. No. RE39,247) that imparts resistance to glyphosate herbicide when expressed in transgenic corn plants, an “[…]” element (SEQ ID NO:5, bold and underlined) embedded in the anti-sense DNA, an “[…]” element (SEQ ID NO:6, bold and underlined) followed by sense DNA (lower case) and a “TTTTTT” terminator element (SEQ ID NO:7, bold and underlined). A solution of 0.1 wt % Silwet L-77 brand organosilicone surfactant and a solution of multiple copies of the dsDNA molecule are sprayed onto leaves of volunteer glyphosate-resistant corn plants growing in a field of glyphosate-resistant soybean plants, followed 7 days later by treatment with Roundup WeatherMAX® brand glyphosate herbicide. […]

[6] = system: glyphosate-resistant soybean plants; experiment: Synthetic Pol III gene dsDNA, soybean crop (Example 8); format: in vivo; conditions: 0.1 wt % Silwet L-77 and dsDNA sprayed, glyphosate 7 days later; 15 days later
Description: as §1

[7] = system: phytoene desaturase (PDS) gene in tomato (Solanum lycopersicum); experiment: Topical PDS dsRNA on tomato (Example 25); format: in vivo; conditions: 2.5 micromolar dsRNA, 40 microliters per plant
Description: A 201 nucleotide dsRNA polynucleotide with an anti-sense strand capable of hybridizing to the RNA encoded by the sequence […] […] […] AG (SEQ ID NO:60) which correspond to the nucleotides at positions 1724-1923 of the mRNA transcribed from the tomato PDS gene sequence (SEQ ID NO:59) was synthesized by RT PCR using oligonucleotide primers with the sequences […] (SEQ ID NO:61, sense primer) and […] (SEQ ID NO:62, anti-sense primer). A 2.5 micromolar dsRNA solution was made with the 201 nucleotide dsRNA polynucleotide (SEQ ID NO:60) in 0.01% Silwet L-77 in 5 millimolar sodium phosphate buffer, pH 6.8.
Three-week old tomato seedlings were treated as follows. Two fully expanded leaves were dipped into a freshly made 0.1% Silwet L-77 solution in double-distilled water for a few seconds. The leaves were allowed to dry for 30 minutes to 1 hour. Each plant was then treated by applying 20 microliters dsRNA solution to the top surface of two Silwet-treated leaves (total 40 microliters per plant). Control plants were treated with buffer. The plants were kept in a growth chamber for observation. FIG. 30 depicts the systemic silencing of the target gene PDS as evidenced by bleaching of the dsRNA-treated plants 30 days after topical treatment.

In the case of “HL290: SEQ ID NO:58, anti-sense ssDNA, lettuce PDS (antisense CAAATAAATTTTGTACATTTGGGTAAGCTCCAA; DNA, backbone not given here)”, the “systemic silencing (FIG. 29B)” value [1] is reported as “systemic silencing evidenced by bleaching”.

For `O=C(O)c1ccccc1O` [SA, Salicylic acid], the “improvement of the effects of the dsRNAs and glyphosate activity (plant height)” value [2] was “No improvement”.

For “HL289: SEQ ID NO:57, anti-sense ssDNA, lettuce PDS (antisense CATAGAATGCTCCTTCCACTG; DNA, backbone not given here)”, the “systemic silencing (FIG. 29B)” value [1] was “systemic silencing evidenced by bleaching”.

With “Anti-sense_PO1_488: SEQ ID NO:15, 5′-labelled with Alexa Fluor 488 (antisense ACCCTCCACGACTGCCCTTT; DNA, 5' {AF488}, backbone not given here; listed as Amaranthus palmeri)” the distribution in leaf ([3]; at 24 h and 48 h) was “accumulate at the leaf edge”, the “vascular uptake into leaf” value ([3]; petiole in 200 mM sucrose, imaged 4 h up to 48 h) was “slightly time-dependent vascular uptake” and the “release from vascular tissue into cells, as early as (time after treatment)” value ([3]; petiole uptake) was 8 h.

In the case of “HL288: SEQ ID NO:56, anti-sense ssDNA, lettuce PDS (antisense CCATTCAATGGTGCAGGTAAAAC; DNA, backbone not given here)”, the “systemic silencing (FIG. 29B)” value [1] is reported as “systemic silencing evidenced by bleaching”.

B1: EPSPS anti-sense polynucleotides: SEQ ID NOS:279-284, anti-sense to Nicotiana benthamiana EPSPS (nucleic acid)
antisense 1: CTGTGATCATCATATGTATCA
antisense 2: CCTTAACTCTCCAGCTAGCAA
antisense 3: CAGCCCGCAAATGTTTCATTC
antisense 4: GCCGTCAATGGCCGCATTGCT
antisense 5: TCCTTCCCTCAGAAAGGGCAG
antisense 6: TTGCCTCATGCTGCTAATCTG
modifications: listed as DNA, chemistry not given here
For B1, the “plant height (FIG. 36)” value ([4]; 12 days (PDS and EPSPS) or 10 days (RuBisCO) after treatment) was “severe stunting” and the other phenotype [4] was “severe damage to the meristem and stem tissues”.

B2: synthetic Pol III gene: dsDNA, SEQ ID NO:3, U6 snRNA elements with anti-sense and sense DNA of bacterial EPSPS (nucleic acid)
DNA: GGCCCATAGGCCTTTTTCTAAAATAGGCCCATTTAAGCTATTAACAATCTTCAAAAGTACCACATCGCTTAGGTAAAGAAAGCAGCTGAGTTTATATATGGTTAGAGACGAAGTAGTGATTGCGACGAGCGACGTCTCGCCCTCATCGCAATCCACGCCATTGAGCTTGAGGCCATTGGCGACGGCCGAGAGGCGGTCGCTTAAGATTAGCATGTCCTTGACGCGGAGTTCTTCCAGACCGTTCATCACGGTCGCCCCTTCCGCGAAGGCGGCGGCGACAGCGAGAATCGGATATTCGTCGATCATCGAAGGCGCGCGGTCTTCCGGCACCGTGACGCATAAACACGGTGCCGGAAGACCGCGCGCCTTCGATGATCGACGAATATCCGATTCTCGCTGTCGCCGCCGCCTTCGCGGAAGGGGCGACCGTGATGAACGGTCTGGAAGAACTCCGCGTCAAGGAAAGCGACCGCCTCTCGGCCGTCGCCAATGGCCTCAAGCTCAATGGCGTGGATTGCGATGAGGGCGAGACGTCGCTCGTCGTTTTTTTTGGCAAAAA
In the case of B2, the corn plant outcome [5] is reported as “dead” and the soybean plant outcome [6] is reported as “thriving”.

B3: 201 nucleotide dsRNA polynucleotide: dsRNA to SEQ ID NO:60, positions 1724-1923 of tomato PDS mRNA (nucleic acid)
sense: TCGCAGCGACTCAGAAATTATTGATGCAACGATGAAGGAACTAGCAACGCTTTTTCCTGATGAAATTTCAGCAGATCAAAGCAAAGCAAAAATATTGAAGTACCATGTTGTCAAAACTCCGAGGTCTGTTTATAAAACTGTGCCAGGTTGTGAACCCTGTCGGCCTTTACAAAGATCCCCAATAGAGGGGTTTTATTTAG
modifications: complementary strand
With B3 the “plant growth compared to control plants” value [7] was “severely stunted” and the “systemic silencing of PDS (FIG. 30)” value ([7]; 30 days after topical treatment) was “bleaching”.
